From patent US20080200460A1, “Chemical Compounds” (priority 2004, published 2008) come the findings set out here.

The structures appear in SMILES notation.

One may read the IC50 as the concentration at which inhibition is half-maximal.

The target in the assay is recombinant human CCR5 receptor (Homo sapiens, UniProt P51681). Put plainly: in vitro radioligand binding assay: inhibition of binding of iodinated MIP-1α (scintillation proximity). The settings on record: displacement of iodinated MIP-1α from membranes of Chinese hamster ovary cells expressing recombinant human CCR5; negative log10 of IC50; average if tested more than once. As to the method: The ability of compounds to inhibit the binding of MIP-1α was assessed by an in vitro radioligand binding assay. Membranes were prepared from Chinese hamster ovary cells which expressed the recombinant human CCR5 receptor. These membranes were incubated with […] iodinated MIP-1α, scintillation proximity beads and various concentrations of the compounds of the invention in 96-well plates. The amount of iodinated MIP-1α bound to the receptor was determined by scintillation counting. Competition curves were obtained for compounds and the concentration of compound which displaced 50% of bound iodinated MIP-1α was calculated (IC50).
Chain of recombinant human CCR5 receptor (P51681 whole entry): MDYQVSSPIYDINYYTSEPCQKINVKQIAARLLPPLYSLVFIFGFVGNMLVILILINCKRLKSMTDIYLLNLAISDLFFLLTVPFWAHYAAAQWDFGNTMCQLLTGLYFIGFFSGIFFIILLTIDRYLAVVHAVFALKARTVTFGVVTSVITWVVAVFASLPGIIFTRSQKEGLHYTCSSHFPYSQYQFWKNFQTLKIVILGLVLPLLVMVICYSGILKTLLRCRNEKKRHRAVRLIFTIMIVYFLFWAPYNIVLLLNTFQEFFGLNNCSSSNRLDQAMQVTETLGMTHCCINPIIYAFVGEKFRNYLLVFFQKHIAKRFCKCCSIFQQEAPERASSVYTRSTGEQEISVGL
Results from this test for certain compounds of the invention are presented in Table V. In Table V the results are presented as Pic50 values. A Pic50 value is the negative log (to base 10) of the IC50 result, so an IC50 of 1 μM (that is 1×10^−6M) gives a Pic50 of 6. If a compound was tested more than once then the data below is an average of the probative tests results.
For orientation: SPA uses beads or plates that emit light when radiolabelled molecules are held near them.
Take `CCN(C(=O)CC1CCN(S(C)(=O)=O)CC1)C1CCN(CC[C@H](c2ccc(S(C)(=O)=O)cc2)c2cc(F)cc(F)c2)CC1` [Compound 1 Table III, N-(1-{(3R)-3-(3,5-difluorophenyl)-3-[4-(methylsulphonyl)phenyl]propyl}piperidin-4-yl)-N-ethyl-2-[1-(methylsulphonyl)piperidin-4-yl]acetamide]: the IC50 is 0.794 nM.

Turning to `CCN(C(=O)NCC1CCN(S(C)(=O)=O)CC1)C1CCN(CC[C@H](c2ccc(S(C)(=O)=O)cc2)c2cc(F)cc(F)c2)CC1` [Compound 1 Table IV], the IC50 was 0.316 nM. As to `CCN(C(=O)CC1CCOCC1)C1CCN(CC[C@H](c2ccc(S(C)(=O)=O)cc2)c2cc(F)cc(F)c2)CC1` [Compound 2 Table III, N-(1-{(3R)-3-(3,5-difluorophenyl)-3-[4-(methylsulphonyl)phenyl]propyl}piperidin-4-yl)-N-ethyl-2-(tetrahydro-2H-pyran-4-yl)acetamide], the IC50 is 15.8 nM. Then `CCN(C(=O)CN1CCN(S(C)(=O)=O)CC1)C1CCN(CC[C@@H](c2cc(F)cc(F)c2)C2CCN(S(C)(=O)=O)CC2)CC1` [Compound 5 Table I, N-(1-{(3R)-3-(3,5-difluorophenyl)-3-[1-(methylsulfonyl)piperidin-4-yl]propyl}piperidin-4-yl)-N-ethyl-2-[4-(methylsulfonyl)piperazin-1-yl]acetamide], with 3.16 nM. For the molecule `C=CCN(C(=O)CC1CCN(S(C)(=O)=O)CC1)C1CCN(CC[C@@H](c2cc(F)cc(F)c2)C2CCN(S(C)(=O)=O)CC2)CC1` [Compound 7 Table I, N-allyl-N-(1-{(3R)-3-(3,5-difluorophenyl)-3-[1-(methylsulfonyl)piperidin-4-yl]propyl}piperidin-4-yl)-2-[1-(methylsulfonyl)piperidin-4-yl]acetamide], the IC50 is 0.316 nM.
